Tested on: mouse
Test: Acute toxicity after oral or intraperitoneal administration
Assay type: in vivo
Conditions: orally or intraperitoneally administered to a mouse at 1 g/kg

Substance: agarose
- acute toxicity: No acute toxicity

From US20050124575A1, “Remedies” (Takara Bio Inc., priority 2002, published 2005)
